The values below are quoted from earlier work in patent US8091275B2, “pH buffered plant nutrient compositions and methods for growing plants” (AeroGrow International, priority 2004, dated 2012).

This data set has as its system plants. To be noted: phosphorous maintained at levels adequate to stabilize pH (1 to 10 mM).

In the case of phosphorous, the toxicity to plants result is on record as “toxic to plants”.
